Where two headings read alike, the source gives them in different places.
How the values were obtained:
[1] = test system: intracellular MRSA; assay type: cell-based, Staphylococcus aureus; settings: for %GFP+ rep 1 / z-scoreMRSA+ rep 1: replicate 1; for %GFP+ rep 2 / z-scoreMRSA+ rep 2: replicate 2; for %GFP+ rep 3 / z-scoreMRSA+ rep 3: replicate 3; for z-scoreMRSA+ mean: mean of 3 replicates
Method in brief: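 HeLa cells infected with GFP-MRSA (MOI ~6.8), gentamicin-cleared, then incubated overnight at 37°C with inhibitors plus 5 µg/ml gentamicin; DMSO as negative control, triplicates. Flow cytometry gave % GFP-positive cells and cell count (viability surrogate); hits by plate z-score (MRSA ≤ -2, HeLa count ≥ -3).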

[2] = test system: HeLa cells; assay: Compound screen by flow cytometry: HeLa cell count as surrogate readout of cell viability (z-scoreHeLa); assay type: cell-based, human; settings: for cell count rep 1 / z-scoreHeLa rep 1: replicate 1; for cell count rep 2 / z-scoreHeLa rep 2: replicate 2; for cell count rep 3 / z-scoreHeLa rep 3: replicate 3; for z-scoreHeLa mean: mean of 3 replicates
Method in brief: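 HeLa cells were infected with GFP-MRSA (mean MOI 6.8 ± 4.6) for 1 h, and extracellular bacteria were killed with 30 µg/ml gentamicin. Cells were then incubated overnight with kinase inhibitors in 5 µg/ml gentamicin, in triplicate against DMSO controls. Flow-cytometric cell count served as a viability surrogate, expressed as a plate z-score.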

[3] = PKIS compound screen raw data, MRSA-infected HeLa cells
[4] = Yes/No: effect without cell death
[5] = compound screen, MRSA-infected HeLa cells
[6] = PKIS compound screen raw data, HeLa cell count
[7] = compound screen, HeLa cell count
[8] = PKIS compound screen, MRSA-infected HeLa cells
[9] = PKIS compound screen, Yes/No call
[10] = PKIS compound screen, Yes/No call (effect without cell death)
[11] = PKIS compound screen, Yes/No call on z-scoreMRSA+
[12] = PKIS compounds raw data, MRSA-infected HeLa cells
[13] = PKIS compound screen, HeLa cell count
[14] = PKIS compound screen, Yes/No call on z-scoreHeLa
[15] = PKIS compounds raw data, HeLa cell count

Cc1cccc(-c2nc(Nc3ccc4c(cnn4C)c3)c3ccccc3n2)n1 [GW876731X]
%GFP+ rep 1 [1, 3]: 19.5%
%GFP+ rep 2 [1, 3]: 19.1%
%GFP+ rep 3 [1, 3]: 19.8%
effect ([1]; Yes/No call from z-scoreMRSA+): No
hit [1, 4]: No
z-scoreMRSA+ mean [1, 5]: -0.09
z-scoreMRSA+ rep 1 [1, 5]: 0.19
z-scoreMRSA+ rep 2 [1, 5]: -0.0842
z-scoreMRSA+ rep 3 [1, 5]: -0.39
cell count rep 1 [2, 6]: 29057
cell count rep 2 [2, 6]: 27157
cell count rep 3 [2, 6]: 25742
cell death ([2]; Yes/No call from z-scoreHeLa): No
z-scoreHeLa mean [2, 7]: 0.49
z-scoreHeLa rep 1 [2, 7]: -0.19
z-scoreHeLa rep 2 [2, 7]: 0.32
z-scoreHeLa rep 3 [2, 7]: 1.33

COc1cccc(NC(=O)NCCNc2ccnc(Nc3ccc(F)cc3)n2)c1 [GSK1379879A]
%GFP+ rep 1 [1, 3]: 22.7%
%GFP+ rep 2 [1, 3]: 22.0%
%GFP+ rep 3 [1, 3]: 21.2%
effect ([1]; Yes/No call from z-scoreMRSA+): No
hit [1, 4]: No
z-scoreMRSA+ mean [1, 5]: -0.35
z-scoreMRSA+ rep 1 [1, 5]: -0.60
z-scoreMRSA+ rep 2 [1, 5]: -0.15
z-scoreMRSA+ rep 3 [1, 5]: -0.30
cell count rep 1 [2, 6]: 4370
cell count rep 2 [2, 6]: 3480
cell count rep 3 [2, 6]: 4436
cell death ([2]; Yes/No call from z-scoreHeLa): No
z-scoreHeLa mean [2, 7]: -0.38
z-scoreHeLa rep 1 [2, 7]: 0.0133
z-scoreHeLa rep 2 [2, 7]: -0.63
z-scoreHeLa rep 3 [2, 7]: -0.51

Cn1cc(-c2ccc3c(c2)CCN3C(=O)Cc2cc(F)cc(F)c2F)c2c(N)ncnc21 [GSK2634140A]
%GFP+ rep 1 [1, 3]: 26.0%
%GFP+ rep 2 [1, 3]: 26.7%
%GFP+ rep 3 [1, 3]: 24.3%
effect ([1]; Yes/No call from z-scoreMRSA+): No
hit [1, 4]: No
z-scoreMRSA+ mean [1, 5]: 0.60
z-scoreMRSA+ rep 1 [1, 5]: 0.17
z-scoreMRSA+ rep 2 [1, 5]: 0.99
z-scoreMRSA+ rep 3 [1, 5]: 0.63
cell count rep 1 [2, 6]: 2359
cell count rep 2 [2, 6]: 2548
cell count rep 3 [2, 6]: 2693
cell death ([2]; Yes/No call from z-scoreHeLa): No
z-scoreHeLa mean [2, 7]: -1.47
z-scoreHeLa rep 1 [2, 7]: -1.44
z-scoreHeLa rep 2 [2, 7]: -1.35
z-scoreHeLa rep 3 [2, 7]: -1.61

Fc1cc(Cl)ccc1Nc1ccnc2cc(-c3ccc(CN4CCOCC4)o3)ccc12 [GW560109X]
%GFP+ rep 1 [1, 3]: 14.2%
%GFP+ rep 2 [1, 3]: 18.0%
%GFP+ rep 3 [1, 3]: 17.4%
z-scoreMRSA+ mean [1, 8]: -0.89
z-scoreMRSA+ rep 1 [1, 8]: -1.22
z-scoreMRSA+ rep 2 [1, 8]: -0.38
z-scoreMRSA+ rep 3 [1, 8]: -1.05
effect [1, 9]: No
hit [1, 10]: No
effect [1, 11]: No
z-scoreMRSA+ mean ([1]; PKIS compound screen): 0.05
z-scoreMRSA+ rep 1 ([1]; PKIS compound screen): 0.36
z-scoreMRSA+ rep 2 ([1]; PKIS compound screen): -0.28
z-scoreMRSA+ rep 3 ([1]; PKIS compound screen): 0.06
%GFP+ rep 1 [1, 12]: 28.9%
%GFP+ rep 2 [1, 12]: 24.6%
%GFP+ rep 3 [1, 12]: 27.6%
cell count rep 1 [2, 6]: 37673
cell count rep 2 [2, 6]: 25490
cell count rep 3 [2, 6]: 23726
z-scoreHeLa mean [2, 13]: 0.75
z-scoreHeLa rep 1 [2, 13]: 1.27
z-scoreHeLa rep 2 [2, 13]: 0.037
z-scoreHeLa rep 3 [2, 13]: 0.94
cell death [2, 9]: No
cell death [2, 14]: No
z-scoreHeLa mean ([2]; PKIS compound screen): 0.33
z-scoreHeLa rep 1 ([2]; PKIS compound screen): -0.12
z-scoreHeLa rep 2 ([2]; PKIS compound screen): 0.0321
z-scoreHeLa rep 3 ([2]; PKIS compound screen): 1.09
cell count rep 1 [2, 15]: 5844
cell count rep 2 [2, 15]: 6056
cell count rep 3 [2, 15]: 7316

O=C1Nc2ccc(-c3cccnc3)cc2C1=Cc1cc(Br)c(O)c(Br)c1 [GW429374A]
%GFP+ rep 1 [1, 3]: 14.3%
%GFP+ rep 2 [1, 3]: 14.7%
%GFP+ rep 3 [1, 3]: 15.6%
z-scoreMRSA+ mean [1, 8]: -1.18
z-scoreMRSA+ rep 1 [1, 8]: -1.13
z-scoreMRSA+ rep 2 [1, 8]: -1.15
z-scoreMRSA+ rep 3 [1, 8]: -1.27
hit [1, 10]: No
effect [1, 11]: No
cell count rep 1 [2, 6]: 24917
cell count rep 2 [2, 6]: 38643
cell count rep 3 [2, 6]: 50434
z-scoreHeLa mean [2, 13]: 1.01
z-scoreHeLa rep 1 [2, 13]: 0.73
z-scoreHeLa rep 2 [2, 13]: 0.72
z-scoreHeLa rep 3 [2, 13]: 1.58
cell death [2, 14]: No

Cn1cncc1-c1cc2c(Nc3ccc(OCc4ccccc4)cc3)ncnc2cn1 [GW281179X]
%GFP+ rep 1 [1, 3]: 19.2%
%GFP+ rep 2 [1, 3]: 17.8%
%GFP+ rep 3 [1, 3]: 19.0%
z-scoreMRSA+ mean [1, 8]: -0.31
z-scoreMRSA+ rep 1 [1, 8]: 0.11
z-scoreMRSA+ rep 2 [1, 8]: -0.44
z-scoreMRSA+ rep 3 [1, 8]: -0.61
effect [1, 9]: No
hit [1, 10]: No
effect [1, 11]: No
z-scoreMRSA+ mean ([1]; PKIS compound screen): -0.18
z-scoreMRSA+ rep 1 ([1]; PKIS compound screen): -0.25
z-scoreMRSA+ rep 2 ([1]; PKIS compound screen): 0.13
z-scoreMRSA+ rep 3 ([1]; PKIS compound screen): -0.42
%GFP+ rep 1 [1, 12]: 25.8%
%GFP+ rep 2 [1, 12]: 26.7%
%GFP+ rep 3 [1, 12]: 25.0%
cell count rep 1 [2, 6]: 28376
cell count rep 2 [2, 6]: 11001
cell count rep 3 [2, 6]: 11278
z-scoreHeLa mean [2, 13]: -1.41
z-scoreHeLa rep 1 [2, 13]: -0.31
z-scoreHeLa rep 2 [2, 13]: -2.45
z-scoreHeLa rep 3 [2, 13]: -1.49
cell death [2, 9]: No
cell death [2, 14]: No
z-scoreHeLa mean ([2]; PKIS compound screen): -1.83
z-scoreHeLa rep 1 ([2]; PKIS compound screen): -2.06
z-scoreHeLa rep 2 ([2]; PKIS compound screen): -2.65
z-scoreHeLa rep 3 ([2]; PKIS compound screen): -0.79
cell count rep 1 [2, 15]: 2614
cell count rep 2 [2, 15]: 2008
cell count rep 3 [2, 15]: 4357

Source: article PMC10999543, “Identification of kinase modulators as host-directed therapeutics against intracellular methicillin-resistant Staphylococcus aureus” (Frontiers in Cellular and Infection Microbiology, 2024)
